16 compounds from ChEMBL document CHEMBL4732077, “Potent and orally active purine-based fetal hemoglobin inducers for treating β-thalassemia and sickle cell disease” (Eur J Med Chem, 2021) can be followed below.

Series [1] can be described thus: Cytotoxicity against human erythrocytes assessed as cell viability at 1.25 uM after 3 days alamar blue assay relative to control. Particulars: time 3 day, read-out: Activity. The class given is cell-based, Erythrocyte. (In general: Resazurin is reduced to fluorescent resorufin, in cell work by metabolically active cells.)
Series [2] is described as follows: Induction of gamma-globin gene expression in human erythrocytes at 1.25 uM after 3 days by RT-PCR analysis relative to control. The format is functional, Erythrocyte. Conditions: time 3 day.
Series [3] can be described thus: Volume of distribution at steady state in Sprague-Dawley rat at 2 mg/kg, iv measured upto 24 hrs by LC-MS/MS analysis. The format is ADME, organism-based. Conditions: in vivo, read-out: Vdss.
The nature of series [4]: Clearance in Sprague-Dawley rat at 2 mg/kg, iv measured upto 24 hrs by LC-MS/MS analysis. The format is ADME, organism-based. Particulars: in vivo.
Series [5] is described as follows: Water solubility of compound at pH 7.4 after 24 hrs by LC/MS analysis. The format is physicochemical. Particulars: buffer, pH 7.4, 24 h.
A short description of series [6]: Half life in Sprague-Dawley rat at 2 mg/kg, iv measured upto 24 hrs by LC-MS/MS analysis. Conditions: in vivo. The format is ADME, organism-based.
Series [7] is described as follows: AUC (0 to infinity) in Sprague-Dawley rat at 2 mg/kg, iv measured upto 24 hrs by LC-MS/MS analysis. The format is ADME, organism-based. Set-up: route intravenous, dose 2 mg/kg, time <=24. Conditions: in vivo.
The nature of series [8]: Cytotoxicity against human erythrocytes assessed as cell viability at 0.1 uM after 3 days alamar blue assay relative to control. Particulars: time 3 day, read-out: Activity. The class given is cell-based, Erythrocyte.
A short description of series [9]: Induction of gamma-globin gene expression in human erythrocytes at 0.1 uM after 3 days by RT-PCR analysis relative to control. The format is functional, Erythrocyte. Conditions: time 3 day.
The nature of series [10]: Induction of gamma-globin gene expression in human erythrocytes at 250 uM after 3 days by RT-PCR analysis relative to control. The class given is functional, Erythrocyte. Conditions: time 3 day.
Series [11] can be described thus: Cytotoxicity against human erythrocytes assessed as cell viability after 3 days alamar blue assay. The format is cell-based, Erythrocyte. Conditions: time 3 day.
The nature of series [12]: Cytotoxicity against human erythrocytes assessed as cell viability at 0.83 uM after 3 days alamar blue assay relative to control. The format is cell-based, Erythrocyte. Conditions: time 3 day, read-out: Activity.
Series [13] in a line: Induction of gamma-globin gene expression in human erythrocytes at 0.83 uM after 3 days by RT-PCR analysis relative to control. The format is functional, Erythrocyte. Conditions: time 3 day.
A short description of series [14]: Induction of gamma-globin gene expression in human erythrocytes at 0.625 uM after 3 days by RT-PCR analysis relative to control. Conditions: time 3 day. The format is functional, Erythrocyte.
Series [15] is described as follows: Cytotoxicity against human erythrocytes assessed as cell viability at 0.625 uM after 3 days alamar blue assay relative to control. The class given is cell-based, Erythrocyte. Particulars: time 3 day, read-out: Activity.
The nature of series [16]: Cytotoxicity against human erythrocytes assessed as cell viability at 0.4 uM after 3 days alamar blue assay relative to control. The format is cell-based, Erythrocyte. Conditions: time 3 day, read-out: Activity.
Series [17] in a line: Induction of gamma-globin gene expression in human erythrocytes at 0.4 uM after 3 days by RT-PCR analysis relative to control. Particulars: time 3 day. The format is functional, Erythrocyte.
A short description of series [18]: Induction of gamma-globin gene expression in human erythrocytes at 15 uM after 3 days by RT-PCR analysis relative to control. The format is functional, Erythrocyte. Particulars: time 3 day.
The nature of series [19]: Cytotoxicity against human erythrocytes assessed as cell viability at 15 uM after 3 days alamar blue assay relative to control. The class given is cell-based, Erythrocyte. Particulars: time 3 day, read-out: Activity.
Series [20] in a line: Cytotoxicity against human erythrocytes assessed as cell viability at 5 uM after 3 days alamar blue assay relative to control. The class given is cell-based, Erythrocyte. Particulars: time 3 day, read-out: Activity.
A short description of series [21]: Induction of gamma-globin gene expression in human erythrocytes at 5 uM after 3 days by RT-PCR analysis relative to control. The class given is functional, Erythrocyte. Conditions: time 3 day.
Series [22] can be described thus: Induction of gamma-globin gene expression in human erythrocytes at 10 uM after 3 days by RT-PCR analysis relative to control. Particulars: time 3 day. The class given is functional, Erythrocyte.
The nature of series [23]: Cytotoxicity against human erythrocytes assessed as cell viability at 10 uM after 3 days alamar blue assay relative to control. The class given is cell-based, Erythrocyte. Conditions: time 3 day, read-out: Activity.

On to `CCn1cnc2c(Nc3cccc(NC(=O)C#Cc4ccc(C)cc4)c3)nc(N3CCN(CCO)CC3)nc21`, for which, in series [1], the viability at 72 h, 1.25 µM is 58%. Further, the “fold change (FC)” value in [2] is on record as 4.6.

The term clearance denotes a measure of how efficiently the substance is removed, as volume per time. The low end stands for inefficient removal, the high end for efficient removal. Usually solubility stands for the dissolved amount per volume that the medium holds. Lower therefore signals a poorly soluble substance. By half-life is commonly meant the time in which the quantity being followed falls by half. Low values mean fast loss, high ones slow loss. A word on the AUC(0-inf): it is total exposure, with the tail of the curve extrapolated. A lower AUC(0-inf) goes with low exposure. As for `CCn1cnc2c(Nc3cccc(NC(=O)C#Cc4ccc(C)cc4)c3)nc(N[C@H]3CC[C@H](O)CC3)nc21`, the Vd in [3] turned out to be 3.8 L/kg. Moreover, the clearance in series [4] amounted to 60.9 mL/min/kg. The compound also returned a solubility in series [5] of less than 0.01 µg/mL. For the same compound, the half-life in series [6] is 10.2 h. In addition, the AUC(0-inf) in [7] amounted to 610 ng·h/mL. In addition, the viability at 72 h, 0.1 µM in series [8] was determined as 61%. Moreover, the “fold change (FC)” value in [9] came out at 1.4.

What is called CC50 is the concentration giving 50% cytotoxicity. For the compound `CCCC(=O)[O-].[Na+]` [SODIUM BUTYRATE], the “fold change (FC)” value in [10] came to 1.3. The CC50 at 72 h in series [11] was 222 µM.

In the case of `CCN1CCN(c2nc(Nc3cccc(C(=O)N[C@@H]4C[C@H]4c4ccccc4)c3)c3ncn(CC)c3n2)CC1`, the viability at 72 h, 0.83 µM in series [12] was found to be 71%. For the same compound, the “fold change (FC)” value in series [13] was found to be 1.3.

`CCN1CCN(c2nc(Nc3cccc(NC(=O)[C@@H]4C[C@H]4c4ccccc4)c3)c3ncn(CC)c3n2)CC1`: in [1], the viability at 72 h, 1.25 µM was 77%. Besides, in series [2], the “fold change (FC)” value was determined as 1.1.

In the case of `CCN1CCN(c2nc(Nc3cccc(C(=O)Nc4ccc(-c5ccccc5)cc4)c3)c3ncn(CC)c3n2)CC1`, the “fold change (FC)” value in series [14] came out at 0.84. Besides, the viability at 72 h, 0.625 µM in series [15] was 105%.

For the compound `CCN1CCN(c2nc(Nc3cccc(NC(=O)/C=C/c4ccccc4)c3)c3ncn(CC)c3n2)CC1`, the viability at 72 h, 1.25 µM in [1] came to 128%. Further, the “fold change (FC)” value in series [2] was 2.3.

For the compound `CCn1cnc2c(Nc3cccc(NC(=O)C#Cc4ccc(C)cc4)c3)nc(OCCN3CCOCC3)nc21`, the viability at 72 h, 0.4 µM in series [16] amounted to 78%. Further, the “fold change (FC)” value in series [17] is reported as 2.6.

On to `CCn1cnc2c(Nc3cccc(NC(=O)C#Cc4ccc(C)cc4)c3)ncnc21`, for which, in series [18], the “fold change (FC)” value was determined as 4.1. Besides, the viability at 72 h, 15 µM in series [19] is 75%.

Take `CCn1cnc2c(Nc3cccc(NC(=O)C#Cc4ccc(C)cc4)c3)nc(N3CCN(CCF)CC3)nc21.Cl.Cl`: the viability at 72 h, 5 µM in series [20] stood at 50%. In addition, the “fold change (FC)” value in series [21] was determined as 4.6.

On to `Cc1ccc(C#CC(=O)Nc2cccc(Nc3ncnc4oc(-c5ccccc5)nc34)c2)cc1`, for which the “fold change (FC)” value in series [22] worked out at 1.2. The viability at 72 h, 10 µM in series [23] came out at 103%.

As to `CCn1cnc2c(Nc3cccc(NC(=O)C#Cc4ccc(C)cc4)c3)nc(N3CCC(N(C)C)CC3)nc21.Cl.Cl`, in series [14], the “fold change (FC)” value is listed as 1.7. For the same compound, the viability at 72 h, 0.625 µM in [15] is 75%.

Turning to `Cc1ccc(C#CC(=O)Nc2cccc(Nc3nc(N[C@H]4CC[C@H](O)CC4)nc4ccccc34)c2)cc1`, in series [1], the viability at 72 h, 1.25 µM was found to be 46%. The “fold change (FC)” value in [2] stood at 1.8.

Turning to `CCn1cnc2c(Nc3cccc(NC(=O)C#Cc4ccc(C)cc4)c3)nc(N3CCC(N(C)C)C3)nc21` (configuration not stated), the viability at 72 h, 1.25 µM in [1] stood at 53%. The “fold change (FC)” value in [2] turned out to be 1.5.

With `CCN1CCN(c2nc(Nc3cccc(NC(=O)N4CCN(c5ccc(F)cc5)CC4)c3)c3ncn(CC)c3n2)CC1`, in series [22], the “fold change (FC)” value amounted to 2.2. Also, the viability at 72 h, 10 µM in [23] came to 8%.

As to `Cc1ccc(C#CC(=O)Nc2cccc(Nc3nc(N[C@H]4CC[C@H](O)CC4)nc4scnc34)c2)cc1`, the “fold change (FC)” value in series [22] turned out to be 0.87. In addition, in [23], the viability at 72 h, 10 µM was 19%.
